Target: T1, human kinase Mps-1 (Homo sapiens, UniProt P33981)
T1 construct: N-terminally GST-tagged human full length recombinant Mps-1 kinase; GST (N); purchased Invitrogen, Karslruhe, Germany PV4071
T1 sequence (P33981 1-857): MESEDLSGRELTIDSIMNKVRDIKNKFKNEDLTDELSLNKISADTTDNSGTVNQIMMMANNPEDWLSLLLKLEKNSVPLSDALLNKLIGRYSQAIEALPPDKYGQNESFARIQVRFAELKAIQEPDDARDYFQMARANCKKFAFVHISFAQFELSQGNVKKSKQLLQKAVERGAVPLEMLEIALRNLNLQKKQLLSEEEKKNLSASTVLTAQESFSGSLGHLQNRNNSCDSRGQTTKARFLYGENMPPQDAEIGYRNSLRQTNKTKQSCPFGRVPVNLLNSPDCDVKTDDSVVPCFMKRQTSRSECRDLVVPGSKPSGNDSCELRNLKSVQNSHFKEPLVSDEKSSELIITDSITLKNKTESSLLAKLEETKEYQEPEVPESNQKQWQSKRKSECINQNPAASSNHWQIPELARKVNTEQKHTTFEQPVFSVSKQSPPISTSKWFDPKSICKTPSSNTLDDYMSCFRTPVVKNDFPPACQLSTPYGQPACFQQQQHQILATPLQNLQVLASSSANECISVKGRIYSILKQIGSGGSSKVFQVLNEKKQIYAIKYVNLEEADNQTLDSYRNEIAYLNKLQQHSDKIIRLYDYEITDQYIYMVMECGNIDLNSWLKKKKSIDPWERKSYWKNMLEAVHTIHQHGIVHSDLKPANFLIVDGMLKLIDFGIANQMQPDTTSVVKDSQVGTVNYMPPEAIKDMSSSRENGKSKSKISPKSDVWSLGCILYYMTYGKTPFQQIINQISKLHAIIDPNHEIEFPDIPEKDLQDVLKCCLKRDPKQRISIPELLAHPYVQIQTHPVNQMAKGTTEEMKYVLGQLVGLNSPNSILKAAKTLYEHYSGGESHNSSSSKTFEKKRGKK
Experiment: Mps-1 kinase assay (TR-FRET)
Type: biochemical
Details: Mps-1 TR-FRET kinase assay; avg; read-out: Mps1 avg (IC50 [mol/l])
In short: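 GST-tagged full-length recombinant human Mps-1 (~0.5 nM) pre-incubated 15 min with compound, then reacted 60 min at 22 °C with 10 μM ATP and 1 μM biotinylated peptide in Hepes pH 7.7 buffer. EDTA-stopped; TR-FRET (Eu anti-phospho-Ser/Thr to SA-XLent) 665/620 nm ratio normalised to no-inhibitor and no-enzyme controls.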

| SMILES | IC50 |
| --- | --- |
| Cc1nsc(Nc2cnc3ccccc3n2)c1C(=O)Nc1ccc(OC2CCN(CC(F)(F)F)CC2)nc1 [Example 21, 3-Methyl-5-(quinoxalin-2-ylamino)-N-(6-{[1-(2,2,2-trifluoroethyl)piperidin-4-yl]oxy}-pyridin-3-yl)-1,2-thiazole-4-carboxamide] | ≥ 20 µM |
| CC(=O)N1CCC(Oc2ccc(NC(=O)c3c(C)nsc3Nc3cnc4ccccc4n3)cn2)CC1 [Example 22, N-{6-[(1-acetylpiperidin-4-yl)oxy]pyridin-3-yl}-3-methyl-5-(quinoxalin-2-ylamino)-1,2-thiazole-4-carboxamide] | ≥ 20 µM |
| Cc1nsc(Nc2cc(C#N)ccn2)c1C(=O)Nc1ccc(OC2CCN(C(=O)OC(C)(C)C)CC2)nc1 [Example 23, tert-Butyl 4-({5-[({5-[(4-cyanopyridin-2-yl)amino]-3-methyl-1,2-thiazol-4-yl}-carbonyl)amino]pyridin-2-yl}oxy)piperidine-1-carboxylate] | 17 µM |
| Cc1nsc(Nc2cc(C#N)ccn2)c1C(=O)Nc1ccc(OC2CCNCC2)nc1 [Example 24, 5-[(4-Cyanopyridin-2-yl)amino]-3-methyl-N-[6-(piperidin-4-yloxy)pyridin-3-yl]-1,2-thiazole-4-carboxamide] | 9 µM |
| Cc1nsc(Nc2cc(C#N)ccn2)c1C(=O)Nc1ccc(OC2CCN(CC(F)(F)F)CC2)nc1 [Example 25, 5-[(4-Cyanopyridin-2-yl)amino]-3-methyl-N-(6-{[1-(2,2,2-trifluoroethyl)piperidin-4-yl]oxy}pyridin-3-yl)-1,2-thiazole-4-carboxamide] | ≥ 20 µM |
| CCN1CCC(Oc2ccc(NC(=O)c3c(C)nsc3Nc3cc(C#N)ccn3)cn2)CC1 [Example 26, 5-[(4-Cyanopyridin-2-yl)amino]-N-{6-[(1-ethylpiperidin-4-yl)oxy]pyridin-3-yl}-3-methyl-1,2-thiazole-4-carboxamide] | ≥ 20 µM |
| Cc1nsc(Nc2cnc3ccccc3n2)c1C(=O)Nc1ccc(N2CCN(C(=O)OC(C)(C)C)CC2)nc1 [Example 248, tert-butyl 4-[5-({[3-methyl-5-(quinoxalin-2-ylamino)-1,2-thiazol-4-yl]carbonyl}amino)pyridin-2-yl]piperazine-1-carboxylate] | > 20 µM |
| Cc1nsc(Nc2cnc3ccccc3n2)c1C(=O)Nc1cccc(C(=O)NC2CC2)c1 [Example 249, N-[3-(cyclopropylcarbamoyl)phenyl]-3-methyl-5-(quinoxalin-2-ylamino)-1,2-thiazole-4-carboxamide] | > 20 µM |
| Cc1nsc(Nc2ccc(C#N)cn2)c1C(=O)Nc1cccc(C(=O)NC2CC2)c1 [Example 250, 5-[(5-cyanopyridin-2-yl)amino]-N-[3-(cyclopropylcarbamoyl)phenyl]-3-methyl-1,2-thiazole-4-carboxamide] | > 20 µM |
| CCNC(=O)c1cccc(NC(=O)c2c(C)nsc2Nc2cnc3ccccc3n2)c1 [Example 251, N-[3-(ethylcarbamoyl)phenyl]-3-methyl-5-(quinoxalin-2-ylamino)-1,2-thiazole-4-carboxamide] | > 20 µM |
| CCNC(=O)c1cccc(NC(=O)c2c(C)nsc2Nc2ccc(C#N)cn2)c1 [Example 252, 5-[(5-cyanopyridin-2-yl)amino]-N-[3-(ethylcarbamoyl)phenyl]-3-methyl-1,2-thiazole-4-carboxamide] | > 20 µM |
| Cc1nsc(Nc2cnc3ccccc3n2)c1C(=O)Nc1cccc(C(=O)NC(C)C)c1 [Example 253, N-[3-(isopropylcarbamoyl)phenyl]-3-methyl-5-(quinoxalin-2-ylamino)-1,2-thiazole-4-carboxamide] | > 20 µM |
| Cc1nsc(Nc2cc(C#N)ccn2)c1C(=O)Nc1cccc(C(=O)NC(C)C)c1 [Example 254, 5-[(4-cyanopyridin-2-yl)amino]-N-[3-(isopropylcarbamoyl)phenyl]-3-methyl-1,2-thiazole-4-carboxamide] | > 20 µM |
| Cc1nsc(Nc2ccc(C#N)cn2)c1C(=O)Nc1cccc(C(=O)NC(C)C)c1 [Example 255, 5-[(5-cyanopyridin-2-yl)amino]-N-[3-(isopropylcarbamoyl)phenyl]-3-methyl-1,2-thiazole-4-carboxamide] | > 20 µM |
| COC(=O)CCCc1ccc(NC(=O)c2c(C)nsc2Nc2cc(C#N)ccn2)cc1 [Example 256, methyl 4-{4-[({5-[(4-cyanopyridin-2-yl)amino]-3-methyl-1,2-thiazol-4-yl}carbonyl)amino]phenyl}butanoate] | > 20 µM |
| COC(=O)CCc1cccc(NC(=O)c2c(C)nsc2Nc2cnc3ccccc3n2)c1 [Example 257, methyl 3-[3-({[3-methyl-5-(quinoxalin-2-ylamino)-1,2-thiazol-4-yl]carbonyl}amino)phenyl]propanoate] | > 20 µM |
| Cc1nsc(Nc2cnc3ccccc3n2)c1C(=O)Nc1cccc(NS(=O)(=O)C2CCN(C(=O)OC(C)(C)C)CC2)c1 [Example 258, tert-butyl 4-{[3-({[3-methyl-5-(quinoxalin-2-ylamino)-1,2-thiazol-4-yl]carbonyl}amino)phenyl]sulfamoyl} piperidine-1-carboxylate] | > 20 µM |
| Cc1nsc(Nc2cnc(C(F)(F)F)cn2)c1C(=O)Nc1ccc(C(=O)NC2CCN(CC(F)F)CC2)cc1 [Example 259, N-(4-{[1-(2,2-difluoroethyl)piperidin-4-yl]carbamoyl}phenyl)-3-methyl-5-{[5-(trifluoromethyl)pyrazin-2-yl]amino}-1,2-thiazole-4-carboxamide] | > 20 µM |
| Cc1nsc(Nc2cnc(C(F)(F)F)cn2)c1C(=O)Nc1ccc(C(=O)N2CCN(CC(F)(F)F)CC2)cc1 [Example 260, 3-methyl-N-(4-{[4-(2,2,2-trifluoroethyl)piperazin-1-yl]carbonyl}phenyl)-5-{[5-(trifluoromethyl)pyrazin-2-yl]amino}-1,2-thiazole-4-carboxamide] | > 20 µM |
| CCN1CCN(C(=O)c2ccc(NC(=O)c3c(C)nsc3Nc3cnc(C(F)(F)F)cn3)cc2)CC1 [Example 261, N-{4-[(4-ethylpiperazin-1-yl)carbonyl]phenyl}-3-methyl-5-{[5-(trifluoromethyl)pyrazin-2-yl]amino}-1,2-thiazole-4-carboxamide] | > 20 µM |
| Cc1nsc(Nc2cnc(C(F)(F)F)cn2)c1C(=O)Nc1ccc(C(=O)N2CCN(C)CC2)cc1 [Example 262, 3-methyl-N-{4-[(4-methylpiperazin-1 yl)carbonyl]phenyl}-5-{[5-(trifluoromethyl)pyrazin-2-yl]amino}-1,2-thiazole-4-carboxamide] | > 20 µM |
| Cc1nsc(Nc2cc(C#N)ccn2)c1C(=O)Nc1ccc(OC2CCN(CC(F)F)CC2)nc1 [Example 263, 5-[(4-cyanopyridin-2-yl)amino]-N-(6-{[1-(2,2-difluoroethyl)piperidin-4-yl]oxy}pyridin-3-yl)-3-methyl-1,2-thiazole-4-carboxamide] | > 20 µM |
| Cc1nsc(Nc2cnc(C(F)(F)F)cn2)c1C(=O)Nc1ccc(F)c(OC2CCN(CC(F)(F)F)CC2)c1 [Example 264, N-(4-fluoro-3-{[1-(2,2,2-trifluoroethyl)piperidin-4-yl]oxy}phenyl)-3-methyl-5-{[5-(trifluoromethyl)pyrazin-2-yl]amino}-1,2-thiazole-4-carboxamide] | > 20 µM |
| Cc1nsc(Nc2cnc(C(F)(F)F)cn2)c1C(=O)Nc1ccc(F)c(OC2CCN(CC(F)F)CC2)c1 [Example 265, N-(3-{[1-(2,2-difluoroethyl)piperidin-4-yl]oxy}-4-fluorophenyl)-3-methyl-5-{[5-(trifluoromethyl)pyrazin-2-yl]amino}-1,2-thiazole-4-carboxamide] | > 20 µM |
| Cc1nsc(Nc2cnc(C(F)(F)F)cn2)c1C(=O)Nc1ccc(F)c(OC2CCN(CCF)CC2)c1 [Example 266, N-(4-fluoro-3-{[1-(2-fluoroethyl)piperidin-4-yl]oxy}phenyl)-3-methyl-5-{[5-(trifluoromethyl)pyrazin-2-yl]amino}-1,2-thiazole-4-carboxamide] | > 20 µM |
| Cc1nsc(Nc2cncc(C(F)(F)F)n2)c1C(=O)Nc1ccc(F)c(OC2CCN(CC(F)(F)F)CC2)c1 [Example 267, N-(4-fluoro-3-{[1-(2,2,2-trifluoroethyl)piperidin-4-yl]oxy}phenyl)-3-methyl-5-{[6-(trifluoromethyl)pyrazin-2-yl]amino}-1,2-thiazole-4-carboxamide] | > 20 µM |
| Cc1nsc(Nc2cncc(C(F)(F)F)n2)c1C(=O)Nc1ccc(F)c(OC2CCN(CC(F)F)CC2)c1 [Example 268, N-(3-{[1-(2,2-difluoroethyl)piperidin-4-yl]oxy}-4-fluorophenyl)-3-methyl-5-{[6-(trifluoromethyl)pyrazin-2-yl]amino}-1,2-thiazole-4-carboxamide] | > 20 µM |

— patent US20170334899A1, “AMINO-SUBSTITUTED ISOTHIAZOLES” (Bayer Pharma Aktiengesellschaft, priority 2014, published 2017)
